What was measured:
[1] = test system: CMRF44Ab; experiment: ELISA binding of peptide phage clones to CMRF44Ab; details: 12-mer phage libraries, confirmed by FACS blocking of CMRF44Ab binding to cell surface
Protocol: (§1) Peptide mimics were isolated from a phage display library using a library purchased from New England Biolabs called the PhD-12 Phage Display Peptide Library Kit (Cat No. #E8110S). The PhD-12 Phage Display Peptide Library Kit is based on a combinatorial library of random peptide 12-mers fused to a minor coat protein (pIII) of M13 phage. […] The library consists of ˜2.7×10^9 electroporated sequences, amplified once to yield ˜55 copies of each sequence in 10 μl of the supplied phage. The library is usually panned 3-4 times on the subject of study (usually antibody, but can use receptors, ligands etc.) with increasing stringency of washing at each step followed by analysis of individual clones for a consensus sequence binding to the test subject.
(§2) The consensus sequence of any peptides isolated from the library were be determined according to methods known to a person skilled in the art. ELISAs were then used to determine the binding of individual peptide phage clones or synthetic peptides (with or without repeats of the consensus sequence) to the original target (FIG. 1). Competitive binding assays were also used and analysed by FACS to determine true binding of the peptide sequences to the binding site of the target compared with the “natural” ligand or epitope (FIG. 2). Sequence analysis of the consensus sequence can determine what type of ligand is binding to the target or could give a true epitope, which may be used for database searches to find possible full-length sequences.
A consensus peptide sequence was identified for peptides which bind to CMRF44Ab from the 12-mer libraries using ELISA. Subsequent FACS analysis of phage peptide blocking of binding of CMRF44Ab to the cell surface also confirmed the peptide sequence. The peptide sequence appeared to be constrained to the N-terminus and the best sequence was AQKYQ (SEQ ID NO: 2) with apparent strong conservation at 1st, 3rd and 5th residues. A family of sequences were also identified and included ALKYQ (SEQ ID NO: 4), ALKEQ (SEQ ID NO: 5) and APKQQ (SEQ ID NO: 3). Further repeat panning of PhD-7 library was carried out to confirm the peptide sequence and identify other possible CMRF44 peptide antigen mimic sequences. […] Also, 3 rounds of repeat panning was carried out on combined 7-mer and 12-mer libraries (pooled together) with acid elution. Several clones sequences as well as pool of 3 round eluate. Results for CMRF-44 show an enrichment of the clone: ALKYQTGMPQSM (SEQ ID NO: 6) in both individual clones and the main strongest sequence in the pooled 3rd round eluate (FIG. 4).

[2] = test system: CMRF44Ab; experiment: Repeat panning of combined 7-mer and 12-mer phage peptide libraries on CMRF44Ab, sequencing of 3rd round clones and pooled eluate; format: binding; details: 3 rounds, combined 7-mer and 12-mer libraries, acid elution; individual clones and pooled 3rd round eluate (FIG. 4)
Excerpt: FIG. 4 is a graphical representation of sequence results of 3rd round combined 7 and 12-mer phage peptide library panning (CMRF44Ab).
as §1
A consensus peptide sequence was identified for peptides which bind to CMRF44Ab from the 12-mer libraries using ELISA. Subsequent FACS analysis of phage peptide blocking of binding of CMRF44Ab to the cell surface also confirmed the peptide sequence. The peptide sequence appeared to be constrained to the N-terminus and the best sequence was AQKYQ (SEQ ID NO: 2) with apparent strong conservation at 1st, 3rd and 5th residues. […]

[3] = test system: CMRF44Ab; experiment: FACS competitive binding: peptide blocking of CMRF44Ab binding to natural antigen on KM-H2 cells; format: cell-based; details: 5-mer peptide alone, KM-H2 cells (FIG. 22)
Excerpt: (§3) FIG. 22 is a graphical representation of FACS data showing binding of CMRF44Ab and scFv binding to KM-H2 cells and blocking of binding to natural antigen by competition with peptide mimic.
as §2

[4] = test system: CMRF44 scFv; experiment: FACS competitive binding: peptide blocking of CMRF44 scFv binding to natural antigen on KM-H2 cells; format: cell-based; details: 5-mer peptide alone, KM-H2 cells (FIG. 22)
Excerpt: as §3, §2

Row | Substance | consensus peptide sequence binding to CMRF44Ab [1] | enrichment of clone in panning [2] | blocking of CMRF44Ab [3] | blocking of the engineered CMRF44 scFv [4]
1 | ALKEQ | identified |  |  | 
2 | ALKYQ | identified |  |  | 
3 | ALKYQTGMPQSM [12-mer phage display peptide clone] |  | enrichment |  | 
4 | APKQQ | identified |  |  | 
5 | AQKYQ | best sequence |  | blocking | blocking
